PMC4461042 (Structure (London, England : 1993), 2015)
Like-named read-outs stand apart in the source and are kept apart here.

Assays:
[1] = target: T1, human neuronal α7 nAChR (Homo sapiens, UniProt P36544); settings: read-out: IC50, inhibition of ACh-evoked nicotinic currents; cited from earlier work
[2] = target: T2, human neuronal α4β2 nAChR (Homo sapiens, UniProt P17787+P43681); settings: read-out: IC50, inhibition of ACh-evoked nicotinic currents; cited from earlier work
[3] = target: L-AChBP (Lymnaea stagnalis, UniProt P58154); assay type: binding
Sequence of L-AChBP (P58154 20-229 limits assumed): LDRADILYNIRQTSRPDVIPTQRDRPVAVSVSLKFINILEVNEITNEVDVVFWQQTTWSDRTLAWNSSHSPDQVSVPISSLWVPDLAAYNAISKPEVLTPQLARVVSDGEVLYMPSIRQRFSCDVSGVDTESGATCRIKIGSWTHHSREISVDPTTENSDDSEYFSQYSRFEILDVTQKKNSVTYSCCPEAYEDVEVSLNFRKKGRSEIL

[4] = target: T1, human neuronal α7 nAChR; assay type: cell-based
[5] = target: T3, α3β2 nAChR (Homo sapiens, UniProt P17787+P32297); settings: cited from earlier work
T3 sequence (P17787 26-502): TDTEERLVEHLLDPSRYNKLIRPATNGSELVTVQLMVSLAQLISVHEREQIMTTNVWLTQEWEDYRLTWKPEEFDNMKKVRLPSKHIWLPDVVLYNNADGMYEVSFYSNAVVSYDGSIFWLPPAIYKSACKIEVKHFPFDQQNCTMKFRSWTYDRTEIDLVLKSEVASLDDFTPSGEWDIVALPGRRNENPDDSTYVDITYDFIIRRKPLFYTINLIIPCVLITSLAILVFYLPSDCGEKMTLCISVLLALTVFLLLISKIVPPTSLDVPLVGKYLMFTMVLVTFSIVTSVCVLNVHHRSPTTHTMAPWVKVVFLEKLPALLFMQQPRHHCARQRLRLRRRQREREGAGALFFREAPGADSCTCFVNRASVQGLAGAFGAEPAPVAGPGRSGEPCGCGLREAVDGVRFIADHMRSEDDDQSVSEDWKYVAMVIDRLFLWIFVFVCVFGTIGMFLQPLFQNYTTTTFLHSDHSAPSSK
T3 sequence (P32297 32-505): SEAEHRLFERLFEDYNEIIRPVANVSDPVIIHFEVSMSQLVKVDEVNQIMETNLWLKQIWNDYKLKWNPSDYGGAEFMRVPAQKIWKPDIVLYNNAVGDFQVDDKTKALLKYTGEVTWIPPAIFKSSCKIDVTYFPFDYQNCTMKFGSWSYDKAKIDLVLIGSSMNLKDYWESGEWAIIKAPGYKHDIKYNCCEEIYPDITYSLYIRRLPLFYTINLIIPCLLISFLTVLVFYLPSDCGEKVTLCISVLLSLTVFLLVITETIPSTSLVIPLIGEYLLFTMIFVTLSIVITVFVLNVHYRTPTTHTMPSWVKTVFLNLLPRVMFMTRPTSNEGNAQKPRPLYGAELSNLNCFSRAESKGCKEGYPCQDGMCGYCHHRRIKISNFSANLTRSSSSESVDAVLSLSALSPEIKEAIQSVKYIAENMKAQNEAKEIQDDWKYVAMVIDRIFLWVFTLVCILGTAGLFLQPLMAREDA

[6] = target: A-AChBP (Aplysia californica, UniProt Q8WSF8); assay type: binding; settings: for Kd: read-out: Kd/calc
Sequence of A-AChBP (Q8WSF8 18-236 limits assumed): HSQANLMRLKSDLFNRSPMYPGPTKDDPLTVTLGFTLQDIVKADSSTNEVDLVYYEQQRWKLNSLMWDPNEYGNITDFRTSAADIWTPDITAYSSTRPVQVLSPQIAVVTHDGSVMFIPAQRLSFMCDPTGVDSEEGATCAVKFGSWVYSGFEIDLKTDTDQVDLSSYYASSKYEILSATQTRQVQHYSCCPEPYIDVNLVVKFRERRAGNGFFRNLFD

[7] = tested on: muscle-type α1_2βγδ nAChR; settings: read-out: IC50, inhibition of ACh-evoked nicotinic currents; cited from earlier work
[8] = target: full-length α7 nAChR (Homo sapiens, UniProt P36544); assay type: binding
Sequence of full-length α7 nAChR (P36544 23-502): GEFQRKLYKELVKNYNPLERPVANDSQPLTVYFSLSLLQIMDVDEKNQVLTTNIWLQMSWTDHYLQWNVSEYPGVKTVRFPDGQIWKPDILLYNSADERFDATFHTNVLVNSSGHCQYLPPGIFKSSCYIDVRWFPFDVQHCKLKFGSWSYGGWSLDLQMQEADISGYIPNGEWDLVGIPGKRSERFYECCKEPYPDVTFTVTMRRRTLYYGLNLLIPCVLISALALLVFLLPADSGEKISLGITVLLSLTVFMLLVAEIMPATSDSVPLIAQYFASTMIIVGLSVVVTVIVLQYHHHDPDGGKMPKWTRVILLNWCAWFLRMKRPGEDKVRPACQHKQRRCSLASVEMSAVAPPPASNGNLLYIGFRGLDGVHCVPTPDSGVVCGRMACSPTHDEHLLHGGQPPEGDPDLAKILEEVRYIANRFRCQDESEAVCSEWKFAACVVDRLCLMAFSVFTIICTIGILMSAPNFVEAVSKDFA

[9] = target: T4, α4β2 nAChR (Homo sapiens, UniProt P17787+P43681); settings: cited from earlier work
T4 sequence (P43681 29-627): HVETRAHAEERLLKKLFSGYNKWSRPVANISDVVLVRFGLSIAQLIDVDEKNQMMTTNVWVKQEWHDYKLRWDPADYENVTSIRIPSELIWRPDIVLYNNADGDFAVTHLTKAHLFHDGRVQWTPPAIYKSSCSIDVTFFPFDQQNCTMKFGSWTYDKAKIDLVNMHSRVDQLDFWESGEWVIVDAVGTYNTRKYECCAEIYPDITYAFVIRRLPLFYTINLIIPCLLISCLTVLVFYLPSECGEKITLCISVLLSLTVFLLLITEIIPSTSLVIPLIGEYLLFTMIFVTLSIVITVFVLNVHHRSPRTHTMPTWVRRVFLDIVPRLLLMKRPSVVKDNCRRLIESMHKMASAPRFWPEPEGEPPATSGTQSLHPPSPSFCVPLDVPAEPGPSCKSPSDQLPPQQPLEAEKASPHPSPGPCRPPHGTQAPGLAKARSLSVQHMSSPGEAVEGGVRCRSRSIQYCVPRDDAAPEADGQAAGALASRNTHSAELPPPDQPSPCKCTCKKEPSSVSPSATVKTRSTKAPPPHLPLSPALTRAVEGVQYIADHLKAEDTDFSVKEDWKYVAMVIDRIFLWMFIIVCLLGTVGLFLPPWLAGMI
T4 sequence (P17787 26-502): as the sequence (P17787 26-502) above

[10] = target: full-length α4β2 nAChR (Homo sapiens, UniProt P17787+P43681); assay type: binding
Sequence of full-length α4β2 nAChR (P17787 26-502): as above
Sequence of full-length α4β2 nAChR (P43681 29-627): as the sequence (P43681 29-627) above

[11] = tested on: mice; settings: in vivo; cited from earlier work
[12] = target: T2, human neuronal α4β2 nAChR; assay type: cell-based; settings: read-out: IC50, inhibition of ACh-evoked nicotinic currents
[13] = target: A-AChBP/α7 chimera III; assay type: binding; settings: read-out: Kd/equ
[14] = target: T3, α3β2 nAChR; assay type: binding
[15] = tested on: muscle-type α1_2βγδ nAChR; assay type: cell-based, Torpedo; settings: read-out: IC50, inhibition of ACh-evoked nicotinic currents
[16] = target: T4, α4β2 nAChR; assay type: binding
[17] = read-out: Kd/equ, competitive component
[18] = read-out: Kd/equ, non-competitive component

T1 sequence (P36544 23-502): as the sequence (P36544 23-502) above
T2 sequence (P43681 29-627): as the sequence (P43681 29-627) above
T2 sequence (P17787 26-502): as the sequence (P17787 26-502) above

SMILES	IC50 [1] [nM]	koff [3]	kon [3]	Kd ([3]; read-out: Kd/calc) [nM]	koff [6]	kon [6]	Kd [6] [nM]	Kd [8, 17] [nM]	Kd [8, 18] [nM]	Kd [10, 17] [nM]	Kd [10, 18] [nM]	other results
C=C1CCCC2=NC[C@H](C)[C@@H](C)C[C@@]23CCC(C(=O)O)=C[C@@H]3[C@@H]2O[C@]3(C[C@H]4CCC[C@@]5(CC[C@@]6(O[C@@H](CC[C@@]6(C)O)C1)O5)O4)C[C@@H](C)[C@@H](O)[C@H]2O3 [PnTx-A, pinnatoxin-A]	0.107	31.6 ± 7.9 ^a min^−1	0.21 ± 0.09 ^a 10^9 M^−1min^−1	170 ± 77	< 0.06 ^b min^−1	1.4 ± 0.7 ^a 10^9 M^−1min^−1	< 0.05	0.18 ± 0.1	2.6 ± 1.3	95 ± 11	199 ± 1	IC50 [2]: 30.4 nM; greater potency (IC50) toward α7 than α4β2 [4]: ~ 300 fold; Ki [5]: 9.4 ± 1.9 nM; IC50 [7]: 5.53 nM; Ki [9]: 15.6 ± 5.2 nM
C=C1CCCC2=NC[C@H](C)[C@@H](C)C[C@@]23CCC(C(=O)O)=C[C@@H]3[C@@H]2O[C@]3(C[C@H]4CCC[C@@]5(CC[C@@]6(O[C@@H](CC[C@@]6(C)O)C1)O5)O4)C[C@@H](C)[C@@H](O)[C@H]2O3 [(−)-PnTx-A]												activity in mouse assays [11]: inactive
C=CC1=C[C@@H]2[C@@H]3O[C@]4(C[C@H]5CCC[C@@]6(CC[C@@]7(O[C@@H](CC[C@@]7(C)O)CC(=C)CCCC7=NC[C@H](C)[C@@H](C)C[C@@]72CC1)O6)O5)C[C@@H](C)[C@@H](O)[C@H]3O4 [PnTx-G, pinnatoxin-G]	5.06	60 ± 30 ^b min^−1	0.17 ± 0.01 ^b 10^9 M^−1min^−1	360 ± 210	0.78 ± 0.06 ^b min^−1	0.91 ± 0.03 ^b 10^9 M^−1min^−1	0.86 ± 0.09	34 ± 4	270 ± 50	99 ± 50	87 ± 62	Kd ([3]; read-out: Kd/equ): 315 nM; IC50 [12]: 4.9 nM; lower potency towards α7 compared with PnTx-A [4]: ~ 50 fold; Kd [13]: 174 ± 19 nM; Ki [14]: 63.9 ± 1.2 nM; IC50 [15]: 3.82 nM; Ki [16]: 101 ± 30 nM
